Reference: patent US20130315843A1, “COMPOSITION FOR REDUCTION OF TRPA1 AND TRPV1 SENSATIONS” (priority 2012, published 2013)
Like-named read-outs stand apart in the source and are kept apart here.

Experiments:
human TRPA1 [1] = biological target: T1, human TRPA1 (Homo sapiens, UniProt O75762); assay: FLIPR Ca2+ assay, reduction of hydrogen peroxide activation of TRPA1; assay type: cell-based; set-up: expressed in transfected cells
Procedure: After centrifugation, a pellet of cells was formed in the bottom of the tube separating them from the supernatant solution.
(§1) The pelleted cells were re-suspended in 10 ml assay buffer and 90 μl aliquots (˜50,000 cells) per well delivered to a 96-well assay plate containing 10 μl of test compounds ([…]) or buffer control and incubated at room temperature for 30 minutes.

human TRPV1 [2] = biological target: T2, human TRPV1 (Homo sapiens, UniProt Q8NER1); assay: FLIPR Ca2+ assay, reduction of hydrogen peroxide activation of TRPV1; assay type: cell-based; set-up: expressed in transfected cells; conditions: for inhibition at 100 µM: antagonist 100 μM against 500 μM hydrogen peroxide; for Ca++ counts: with compound; for inhibition at 400 µM / % Reduction of Hydrogen Peroxide TRPV1 Activation: antagonist 400 μM against 500 μM hydrogen peroxide
T2 sequence (Q8NER1 whole entry): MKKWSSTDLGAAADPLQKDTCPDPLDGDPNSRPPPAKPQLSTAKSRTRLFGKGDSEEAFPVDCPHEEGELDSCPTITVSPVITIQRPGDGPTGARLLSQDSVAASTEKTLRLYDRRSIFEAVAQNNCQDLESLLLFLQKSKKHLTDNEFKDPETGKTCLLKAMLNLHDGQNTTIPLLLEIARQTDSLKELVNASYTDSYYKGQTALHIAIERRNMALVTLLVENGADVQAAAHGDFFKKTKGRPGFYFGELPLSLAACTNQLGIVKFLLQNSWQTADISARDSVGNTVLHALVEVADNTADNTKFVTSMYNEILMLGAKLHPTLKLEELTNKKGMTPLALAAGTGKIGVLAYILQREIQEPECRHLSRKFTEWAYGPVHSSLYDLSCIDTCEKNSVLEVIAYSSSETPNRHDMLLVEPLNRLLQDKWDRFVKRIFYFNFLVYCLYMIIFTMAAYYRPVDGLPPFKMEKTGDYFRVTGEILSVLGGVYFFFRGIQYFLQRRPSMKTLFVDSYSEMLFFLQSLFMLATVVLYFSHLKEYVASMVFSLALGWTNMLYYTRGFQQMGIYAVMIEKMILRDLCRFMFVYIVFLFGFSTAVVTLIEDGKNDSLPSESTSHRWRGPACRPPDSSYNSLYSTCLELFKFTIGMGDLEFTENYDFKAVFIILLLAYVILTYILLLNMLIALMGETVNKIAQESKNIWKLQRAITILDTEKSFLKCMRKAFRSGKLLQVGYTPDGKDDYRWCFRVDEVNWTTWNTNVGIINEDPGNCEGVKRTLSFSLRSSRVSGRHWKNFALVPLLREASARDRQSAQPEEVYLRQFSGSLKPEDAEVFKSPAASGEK
Procedure: (§2) Cells were detached with addition of 10 ml of PBS (phosphate buffered saline) by hand shaking gently. Cells were transferred to a 50 ml tube and centrifuged at 850 rpm for 3 minutes to remove PBS.
The pelleted cells were re-suspended in 10 ml assay buffer and 90 μl aliquots (˜50,000 cells) per well delivered to a 96-well assay plate containing 10 μl of test compounds (1 mM in assay buffer, […]) or buffer control and incubated at room temperature for 30 minutes.

human TRPV1 [3] = biological target: T2, human TRPV1; assay: FLIPR Ca2+ assay, reduction of capsaicin activation of TRPV1; assay type: cell-based; set-up: expressed in transfected cells; conditions: for Ca++ counts: with compound
Procedure: as §2, §1

human TRPA1 [4] = biological target: T1, human TRPA1; assay: FLIPR Ca2+ assay, block of AITC activation of TRPA1; assay type: cell-based; set-up: expressed in transfected cells; conditions: 100 μM antagonist
Procedure: Intracellular Ca^++ levels were measured using cell based assays as described for EXAMPLES 1, 2, and 3.

human TRPA1 [5] = biological target: T1, human TRPA1; assay: FLIPR Ca2+ assay, reduction of L-Menthol activation of TRPA1; conditions: 100 μM antagonist vs 1 mM L-Menthol
Procedure: In order to determine whether TRPA1 is activated, the intracellular calcium ion (Ca^2+) level from transfected cells with the TRPA1 receptor gene was measured. HEK-2 cells stably transfected with human TRPA1 were grown in 15 ml growth medium [high glucose DMEM (Dulbecco's Modification of Eagle's Medium) supplemented with 10% FBS (fetal bovine serum), 100 μg/ml Penicillin/streptomycin, 100 μg/ml G418] in a 75 Cm^2 flask for 3 days at 37° C. in a mammalian cell culture incubator set at 5% CO2. Cells were detached with addition of 10 ml of PBS (phosphate buffered saline) by hand shaking gently and transferred to a 50 ml tube and centrifuged at 850 rpm for 3 minutes to remove PBS. After centrifugation, a pellet of cells was formed in the bottom of the tube separating them from the supernatant solution. […] Fluo-4 is a fluorescent dye used for quantifying cellular Ca^2+ concentrations in the 100 nM to 1 μM range.
The pelleted cells were re-suspended in 10 ml assay buffer and 90 μl aliquots (˜50,000 cells) per well delivered to a 96-well assay plate containing 10 μl of test compounds (1 mM in assay buffer, final concentration 100 μM) or buffer control and incubated at room temperature for 30 minutes. After 30 minutes, the plate was placed into a fluorometric imaging plate reader (FLIPR384 from Molecular Devices) and basal fluorescence recorded (excitation wave length 488 nm and emission wave length 510 nm). Then 20 μl of the molecule being tested as a TRPA1 antagonist was added and fluorescence recorded. For determining the direct effect of test compounds on TRPA1, fluorescence was measured immediately after addition of each compound.
To determine if a compound was an antagonist or a desensitizer the direct effect of a test compound was determined. For determining the direct effect of test compounds on TRPA1 receptor activation, 100 μl aliquots (˜50,000 cells) of cells prepared as described above were delivered to a 96-well assay plate and basal fluorescence recorded as noted above. Then 20 μl of the compound being tested as a TRPA1 activator was added and fluorescence recorded. If any increase in fluorescence over background was noted, then the compound was considered an agonist.

human TRPV1 [6] = biological target: T2, human TRPV1; assay: FLIPR Ca2+ assay, reduction of L-Menthol activation of TRPV1; conditions: for inhibition at 100 µM: read-out: % Reduction of L-Menthol TRPV1 Activation
Procedure: To determine whether TRPV1 was activated, the intracellular calcium ion (Ca^+2) levels from cells transfected with the TRPV1 receptor gene was measured. HEK-239 cells stably transfected with human TRPV1 were grown in 15 ml growth medium [high glucose DMEM (Dulbecco's Modification of Eagle's Medium) supplemented with 10% FBS (fetal bovine serum), 100 g/ml Penicillin/streptomycin, 100 g/ml G418] in a 75 Cm2 flask for 3 days at 33° C. in a mammalian cell culture incubator set at 5% CO2. Cells were detached with addition of 10 ml of PBS (phosphate buffered saline) by hand shaking gently. Cells were transferred to a 50 ml tube and centrifuged at 850 rpm for 3 minutes to remove PBS. After centrifugation, a pellet of cells formed in the bottom of the tube separating them from the supernatant solution. The supernatant was discarded and the cell pellet suspended in 1 ml of fresh growth medium to which 5 μl (12.5 g) of Fluo-4 AM (Molecular Probes, Inc., Eugene, Oreg.) calcium indicator was added and incubated for 30 minutes with gentle shaking.
The pelleted cells were re-suspended in 10 ml assay buffer and 90 μl aliquots (˜50,000 cells) per well delivered to a 96-well assay plate containing 10 μl of test compounds (1 mM in assay buffer, final concentration 100 μM) or buffer control and incubated at room temperature for 30 minutes. After 30 minutes, the plate was placed into a fluorometric imaging plate reader (FLIPR384 from Molecular Devices) and basal fluorescence recorded (excitation wave length 488 nm and emission wave length 510 nm). Then 20 μl of the compound being tested as a TRPV1 receptor activator was added and fluorescence recorded. […] It may be no difference (no effect), or negative (means antagonist or desensitizer) or positive (enhancer, also known as positive allosteric modulator). […] To determine if a compound was an antagonist or a desensitizer, the direct effect of a test compound was determined. For determining the direct effect of test compounds on TRPV1, 100 μl aliquots (˜50,000 cells) of cells prepared as described above were delivered to a 96-well assay plate and basal fluorescence recorded as noted above. Then 20 μl of the compound being tested as a TRPV1 receptor activator was added and fluorescence recorded. If any increase in fluorescence over background was noted, then the compound was considered an agonist. The agonist activity was expressed relative to that observed with a benchmark agonist such as 350 nM Capsaicin for TRPV1.
100 μM of antagonist was tested against 1 mM of L-Menthol to determine the level of reduced TRPV1 receptor activation by L-Menthol. Each antagonist compound was run with 1 mM of L-Menthol as a control and the antagonist activity of each compound was determined by comparing the Ca^2+ levels of the control with the antagonist compound being tested.

[7] = 100 μM antagonist vs 500 μM hydrogen peroxide
[8] = compound 100 μM against 200 μM hydrogen peroxide, Sets 1-4
[9] = compound 100 μM against 200 μM hydrogen peroxide, Sets 1-4, read-out: % Reduction of Hydrogen Peroxide TRPA1 Activation
[10] = 400 μM antagonist vs 500 μM hydrogen peroxide
[11] = read-out: % Reduction of Hydrogen Peroxide TRPA1 Activation
[12] = antagonist 100 μM against 1 mM L-Menthol

T1 sequence (O75762 whole entry): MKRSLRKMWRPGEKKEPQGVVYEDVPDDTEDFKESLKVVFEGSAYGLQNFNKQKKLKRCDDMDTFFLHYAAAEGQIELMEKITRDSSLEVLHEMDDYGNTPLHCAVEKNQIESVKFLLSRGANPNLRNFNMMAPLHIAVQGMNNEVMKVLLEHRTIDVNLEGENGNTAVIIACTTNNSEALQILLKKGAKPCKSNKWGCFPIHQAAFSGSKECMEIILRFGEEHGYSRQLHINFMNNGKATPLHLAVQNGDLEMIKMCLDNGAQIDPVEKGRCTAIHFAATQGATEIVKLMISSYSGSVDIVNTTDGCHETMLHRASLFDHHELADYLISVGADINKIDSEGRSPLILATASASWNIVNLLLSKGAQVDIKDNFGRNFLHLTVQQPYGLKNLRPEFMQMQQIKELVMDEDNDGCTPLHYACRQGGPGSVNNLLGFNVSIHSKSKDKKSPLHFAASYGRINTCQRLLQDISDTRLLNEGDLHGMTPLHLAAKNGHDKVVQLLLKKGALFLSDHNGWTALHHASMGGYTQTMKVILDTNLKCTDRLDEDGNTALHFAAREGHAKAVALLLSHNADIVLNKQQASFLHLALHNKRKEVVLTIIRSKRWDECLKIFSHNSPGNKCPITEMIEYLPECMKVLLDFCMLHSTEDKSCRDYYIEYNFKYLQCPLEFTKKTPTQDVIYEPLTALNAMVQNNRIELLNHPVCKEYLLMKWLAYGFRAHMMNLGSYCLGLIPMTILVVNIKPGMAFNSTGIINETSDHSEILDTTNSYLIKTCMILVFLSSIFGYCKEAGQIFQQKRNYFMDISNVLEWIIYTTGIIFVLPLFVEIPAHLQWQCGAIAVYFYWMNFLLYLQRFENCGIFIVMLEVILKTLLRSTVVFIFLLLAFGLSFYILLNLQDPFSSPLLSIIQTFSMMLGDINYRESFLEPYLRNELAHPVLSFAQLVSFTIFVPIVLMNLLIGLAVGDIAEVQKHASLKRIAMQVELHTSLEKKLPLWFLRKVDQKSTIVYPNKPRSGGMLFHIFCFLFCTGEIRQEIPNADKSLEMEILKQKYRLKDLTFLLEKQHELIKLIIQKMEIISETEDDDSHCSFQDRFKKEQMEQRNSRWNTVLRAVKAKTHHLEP

| Compound | Block of hydrogen peroxide activation of TRPA1 (human TRPA1 [1]; [7]) | Average Ca++ Counts (human TRPA1 [1]; [8]) | Ca++ counts (human TRPV1 [2]; Dose 4000, 500 uM H2O2) | Ca++ counts (human TRPV1 [3]; Dose 4000, 350 nM Capsaicin) | Block of AITC activation of TRPA1 (human TRPA1 [4]) | Block of L-Menthol activation of TRPA1 (human TRPA1 [5]) | Average Ca2+ Counts (human TRPV1 [6]; [12]) | inhibition at 100 µM (human TRPV1 [6]) | other results |
| --- | --- | --- | --- | --- | --- | --- | --- | --- | --- |
| CC1=CC(=O)C(C(C)C)CC1 [L-Piperiton] | – | – | – | – | – | – | – | – | % inhibition of TRPV1 activation by 500 uM H2O2 (human TRPV1 [2]; Dose 1000): 58%; Ca++ counts (human TRPV1 [2]; Dose 1000, 500 uM H2O2): 361; % inhibition of TRPV1 activation by 350 nM Capsaicin (human TRPV1 [3]; Dose 1000): 12%; Ca++ counts (human TRPV1 [3]; Dose 1000, 350 nM Capsaicin): 13225 |
| CCCCCC(CC)OC(C)=O (stereo not drawn) [3-Octyl Acetate] | – | – | 181 | 12109 | – | – | – | – | inhibition at 400 µM (human TRPV1 [2]): 90% |
| CC/C=C/CC1CCCC1=O (stereo not drawn) [Jasminone B] | – | – | 903 | 11635 | – | – | – | – | % inhibition of TRPV1 activation by 500 uM H2O2 (human TRPV1 [2]; Dose 4000): 51%; % Reduction of Hydrogen Peroxide TRPV1 Activation (human TRPV1 [2]): 51%; % inhibition of TRPV1 activation by 350 nM Capsaicin (human TRPV1 [3]; Dose 4000): 2% |
| Cn1cccc1C=O [1-Methyl-2-pyrole carboxaldehyde] | – | – | 380 | 11516 | – | – | – | – | reduction of hydrogen peroxide activation of TRPA1, in words (human TRPA1 [1]): reduced hydrogen peroxide activation of TRPA1; Block of hydrogen peroxide activation of TRPA1 (human TRPA1 [1]; [10]): BLOCK ONLY H2O2/TRPA1; % Reduction of Hydrogen Peroxide TRPA1 Activation (human TRPA1 [1]; antagonist 400 μM against 200 μM hydrogen peroxide): 42%; reduction of hydrogen peroxide activation of TRPV1, in words (human TRPV1 [2]): hydrogen peroxide reduction of TRPV1; % inhibition of TRPV1 activation by 500 uM H2O2 (human TRPV1 [2]; Dose 4000): 79%; % Reduction of Hydrogen Peroxide TRPV1 Activation (human TRPV1 [2]): 79%; % inhibition of TRPV1 activation by 350 nM Capsaicin (human TRPV1 [3]; Dose 4000): 3% |
| CCC(C)COC(=O)CC(C)C (stereo not drawn) [2-Methylbutyl isovalerate] | – | – | 380 | 11278 | – | – | – | – | inhibition at 400 µM (human TRPV1 [2]): 79% |
| O=C(CCl)c1ccccc1 [2-chloroacetophenone] | Block menthol, H2O2, and AITC on TRPA1 | 1199.5 Counts | – | – | Block menthol, H2O2, and AITC on TRPA1 | Block menthol, H2O2, and AITC on TRPA1 | 1313.0 Counts | 31.2% | inhibition at 100 µM (human TRPA1 [1]; [11]): 88.7% |
| [Cu+].[I-] [copper(i) iodide] | Block menthol, H2O2, and AITC on TRPA1 | – | – | – | Block menthol, H2O2, and AITC on TRPA1 | Block menthol, H2O2, and AITC on TRPA1 | 651.5 Counts | – | % Reduction of Hydrogen Peroxide TRPA1 Activation (human TRPA1 [1]; [8]): 90.4%; % Reduction of L-Menthol TRPV1 Activation (human TRPV1 [6]; [12]): 89.8% |
| CCCCCC=CCC1CCCC1=O (stereo not drawn) [Octenyl Cyclopentanone] | – | – | 922 | 9378 | – | – | – | – | % inhibition of TRPV1 activation by 500 uM H2O2 (human TRPV1 [2]; Dose 4000): 50%; % Reduction of Hydrogen Peroxide TRPV1 Activation (human TRPV1 [2]): 50%; % inhibition of TRPV1 activation by 350 nM Capsaicin (human TRPV1 [3]; Dose 4000): 1% |
| CCCCOC(=O)c1ccc(O)cc1 [butyl 4-hydroxybenzoate] | – | – | – | – | Block menthol, H2O2, and AITC on TRPA1 | Block menthol, H2O2, and AITC on TRPA1 | 319.0 Counts | 77.2% | Average Ca++ Counts (human TRPA1 [1]): 411.0 Counts; Block of hydrogen peroxide activation of TRPA1 (human TRPA1 [1]): Block menthol, H2O2, and AITC on TRPA1; inhibition at 100 µM (human TRPA1 [1]; [11]): 96.1% |
| CCOc1nccnc1CC [2-Ethoxy-3-ethylpyrazine] | – | – | – | – | – | – | – | – | inhibition at 100 µM (human TRPV1 [2]): 58%; Ca++ counts (human TRPV1 [2]; Dose 1000, 500 uM H2O2): 474; Ca++ counts (human TRPV1 [3]; Dose 1000, 350 nM Capsaicin): 14878 |
| CCCN(CCC)CCC [Tripropylamine] | – | – | 715 | 11278 | – | – | – | – | inhibition at 400 µM (human TRPV1 [2]): 63% |
| CC(S)C(C)S (stereo not drawn) [2,3-butanedithiol] | Block menthol, H2O2, and AITC on TRPA1 | 1280.5 Counts | – | – | Block menthol, H2O2, and AITC on TRPA1 | Block menthol, H2O2, and AITC on TRPA1 | 586.0 Counts | 64.8% | inhibition at 100 µM (human TRPA1 [1]; [9]): 87.9% |
| CC(=O)OC1=C(C)OC(C)C1=O (stereo not drawn) [Strawberry Furanone Acetate, 4-Acetoxy-2,5-dimethyl-3(2H)-furanone] | – | – | – | – | – | – | – | – | reduction of hydrogen peroxide activation of TRPA1, in words (human TRPA1 [1]): reduced hydrogen peroxide activation of TRPA1; Block of hydrogen peroxide activation of TRPA1 (human TRPA1 [1]; [10]): BLOCK ONLY H2O2/TRPA1; inhibition at 400 µM (human TRPA1 [1]; antagonist 400 μM against 200 μM hydrogen peroxide, read-out: % Reduction of Hydrogen Peroxide TRPA1 Activation): 63%; reduction of hydrogen peroxide activation of TRPV1, in words (human TRPV1 [2]): hydrogen peroxide reduction of TRPV1; inhibition at 100 µM (human TRPV1 [2]): 60%; Ca++ counts (human TRPV1 [2]; Dose 1000, 500 uM H2O2): 451; Ca++ counts (human TRPV1 [3]; Dose 1000, 350 nM Capsaicin): 14578 |
| COC(=O)c1ccccc1N(C)C [Methyl N,N-Dimethylanthranilate] | – | – | – | – | – | – | – | – | inhibition at 100 µM (human TRPV1 [2]): 60%; Ca++ counts (human TRPV1 [2]; Dose 1000, 500 uM H2O2): 451; Ca++ counts (human TRPV1 [3]; Dose 1000, 350 nM Capsaicin): 15329 |
| O=CCc1ccccc1 [phenylacetaldehyde] | Block menthol, H2O2, and AITC on TRPA1 | 2578.5 Counts | – | – | Block menthol, H2O2, and AITC on TRPA1 | Block menthol, H2O2, and AITC on TRPA1 | 919.3 Counts | 49.4% | inhibition at 100 µM (human TRPA1 [1]; [9]): 75.7% |

Now from value to molecule, other results behind:

| Block of hydrogen peroxide activation of TRPA1 (human TRPA1 [1]; [7]) | Average Ca++ Counts (human TRPA1 [1]; [8]) | Ca++ counts (human TRPV1 [2]; Dose 4000, 500 uM H2O2) | Ca++ counts (human TRPV1 [3]; Dose 4000, 350 nM Capsaicin) | Compound | Block of AITC activation of TRPA1 (human TRPA1 [4]) | Block of L-Menthol activation of TRPA1 (human TRPA1 [5]) | Average Ca2+ Counts (human TRPV1 [6]; [12]) | inhibition at 100 µM (human TRPV1 [6]) | other results |
| --- | --- | --- | --- | --- | --- | --- | --- | --- | --- |
| BLOCK ONLY H2O2/TRPA1 | 6313.0 Counts | – | – | CC(CC=O)CCCC(C)(C)O (stereo not drawn) [Hydroxycitronellal] | – | – | – | – | inhibition at 100 µM (human TRPA1 [1]; [9]): 40.4%; inhibition at 100 µM (human TRPV1 [2]): 62%; Ca++ counts (human TRPV1 [2]; Dose 1000, 500 uM H2O2): 627; Ca++ counts (human TRPV1 [3]; Dose 1000, 350 nM Capsaicin): 14728 |
| – | – | 866 | 11041 | CC(C)=CC1CC(C)CCO1 (stereo not drawn) [Tetrahydro-4-methyl-2-(2-methyl-1-propenyl)-2H pyran] | – | – | – | – | inhibition at 400 µM (human TRPV1 [2]): 53% |
| – | – | 774 | 11278 | CCCCOC(=O)C(C)C [Butyl Isobutyrate] | – | – | – | – | inhibition at 400 µM (human TRPV1 [2]): 58% |
| Block menthol, H2O2, and AITC on TRPA1 | 2420.0 Counts | – | – | CC1(O)CSC(C)(O)CS1 (stereo not drawn) [2,5-dimethyl-1,4-dithiane-2,5-diol] | Block menthol, H2O2, and AITC on TRPA1 | Block menthol, H2O2, and AITC on TRPA1 | 713.7 Counts | 58.9% | inhibition at 100 µM (human TRPA1 [1]; [9]): 77.2% |
| Block menthol, H2O2, and AITC on TRPA1 | 215.0 Counts | – | – | O=C(CCc1ccc(O)cc1)c1c(O)cc(O)cc1O [phloretin] | Block menthol, H2O2, and AITC on TRPA1 | Block menthol, H2O2, and AITC on TRPA1 | 4616.5 Counts | 27.9% | inhibition at 100 µM (human TRPA1 [1]; [9]): 96.9% |
